From PubChem BioAssay AID330 (DTP/NCI, 2004)
Values joined by “and” are separate entries in the source; they are usually repeats but may differ in a detail not shown here. Equal entries are not always repeated. Inconclusive results and toxic doses are left out. How the source made its calls: active means survival T/C of 150% or more; inactive means T/C below 125% in these data. Peptide text beside a SMILES is read from it. * marks the point of attachment. Cbz = O=C(OCc1ccccc1)*; Boc = CC(C)(C)OC(=O)*; NHNH2 = NN*

System: P388 leukemia ip, CD2F1 mice, survival T/C
Assay: NCI In Vivo Anticancer Drug Screen. Data for tumor model P388 Leukemia (intraperitoneal) in CD2F1 (CDF1) mice
Conditions: endpoint: median survival time, higher = longer survival
Outline: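 Mice carrying the transplanted tumor received test compound or vehicle. Survival was recorded in each group, and the value is the treated-group measurement divided by that of the vehicle-treated control group.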

[1] = dose: 50.0 mg/kg/injection, schedule: Q01DX005 (ip), vehicle: Klucel (hydroxypropylcellulose) (HPC)
[2] = dose: 100.0 mg/kg/injection, schedule: Q01DX005 (ip), vehicle: Klucel (hydroxypropylcellulose) (HPC)
[3] = dose: 200.0 mg/kg/injection, schedule: Q01DX005 (ip), vehicle: Klucel (hydroxypropylcellulose) (HPC)
[4] = dose: 100.0 mg/kg/injection, schedule: Q01DX001 (ip), vehicle: Klucel (hydroxypropylcellulose) (HPC)
[5] = dose: 200.0 mg/kg/injection, schedule: Q01DX001 (ip), vehicle: Klucel (hydroxypropylcellulose) (HPC)
[6] = dose: 400.0 mg/kg/injection, schedule: Q01DX001 (ip), vehicle: Klucel (hydroxypropylcellulose) (HPC)
[7] = dose: 12.5 mg/kg/injection, schedule: Q01DX009 (ip), vehicle: saline
[8] = dose: 25.0 mg/kg/injection, schedule: Q01DX009 (ip), vehicle: saline
[9] = dose: 12.5 mg/kg/injection, schedule: Q01DX009 (ip), vehicle: other
[10] = dose: 25.0 mg/kg/injection, schedule: Q01DX009 (ip), vehicle: other
[11] = dose: 50.0 mg/kg/injection, schedule: Q01DX009 (ip), vehicle: other
[12] = dose: 100.0 mg/kg/injection, schedule: Q01DX009 (ip), vehicle: other
[13] = dose: 200.0 mg/kg/injection, schedule: Q01DX009 (ip), vehicle: other
[14] = dose: 12.5 mg/kg/injection, schedule: Q01DX009 (ip), vehicle: saline with Tween-80
[15] = dose: 25.0 mg/kg/injection, schedule: Q01DX009 (ip), vehicle: saline with Tween-80
[16] = dose: 50.0 mg/kg/injection, schedule: Q01DX009 (ip), vehicle: saline with Tween-80
[17] = dose: 50.0 mg/kg/injection, schedule: Q01DX009 (ip), vehicle: saline
[18] = dose: 100.0 mg/kg/injection, schedule: Q01DX009 (ip), vehicle: saline with Tween-80
[19] = dose: 100.0 mg/kg/injection, schedule: Q01DX009 (ip), vehicle: saline
[20] = dose: 200.0 mg/kg/injection, schedule: Q01DX009 (ip), vehicle: saline

Measured: T/C

Cc1cc(N2C(=O)CCSC2=S)ccc1Br
inactive: dose: 50.0 mg/kg/injection, schedule: Q01DX009 (ip), vehicle: suspension in saline 87 % of control | dose: 100.0 mg/kg/injection, schedule: Q01DX009 (ip), vehicle: suspension in saline 104 % of control | dose: 200.0 mg/kg/injection, schedule: Q01DX009 (ip), vehicle: suspension in saline 116 % of control

Cc1cc(Cl)cc2c1OCOC2
inactive: dose: 50.0 mg/kg/injection, schedule: Q01DX009 (ip), vehicle: acetone 101 % of control | dose: 100.0 mg/kg/injection, schedule: Q01DX009 (ip), vehicle: acetone 102 % of control

O=C1CNC(=O)N1CN1CCc2ccccc2C1
inactive: [1] 99 % of control | [2] 105 % of control | [3] 99 % of control

CC1COC2(CCC(=CBr)CC2)O1 (stereo not given)
inactive: [4] 96 % of control | [5] 107 % of control | [6] 100 % of control

O=C(Nc1ccccc1)C1(c2ccccc2)CCCCC1
inactive: dose: 25.0 mg/kg/injection, schedule: Q01DX005 (ip), vehicle: Klucel (hydroxypropylcellulose) (HPC) 101 % of control | [1] 99 % of control | [2] 100 % of control | [3] 93 % of control

NC(N)=O.NC(N)=O.NC(N)=O.NC(N)=O.NC(N)=O.NC(N)=O.[Cr]
inactive: dose: 3.13 mg/kg/injection, schedule: Q04DX003 (ip), vehicle: saline 98 % of control | dose: 6.25 mg/kg/injection, schedule: Q04DX003 (ip), vehicle: saline 101 % of control | dose: 12.5 mg/kg/injection, schedule: Q04DX003 (ip), vehicle: saline 101 % of control and 102 % of control | dose: 25.0 mg/kg/injection, schedule: Q04DX003 (ip), vehicle: saline 103 % of control

Nc1ccc(N)c(N)n1
inactive: dose: 6.25 mg/kg/injection, schedule: Q01DX009 (ip), vehicle: saline 95 % of control | [7] 104 % of control | [8] 100 % of control

CC(=O)OC12CCCCC1C1(CCCCC1)N=[N+]2[O-] (stereo not given)
inactive: [9] 105 % of control | [10] 115 % of control | [11] 100 % of control | [12] 99 % of control | [13] 112 % of control

CN(C)CCOC(=O)C(C)(C)Sc1ccc(Cl)cc1
inactive: dose: 60.0 mg/kg/injection, schedule: Q01DX005 (ip), vehicle: saline with Tween-80 107 % of control | dose: 120.0 mg/kg/injection, schedule: Q01DX005 (ip), vehicle: saline with Tween-80 92 % of control | dose: 240.0 mg/kg/injection, schedule: Q01DX005 (ip), vehicle: saline with Tween-80 98 % of control

O=C1OC(=O)[C@H]2[C@@H]1[C@H]1C=C[C@@H]2OC1=O
inactive: [14] 123 % of control | [7] 103 % of control | [15] 108 % of control | [8] 100 % of control | [16] 105 % of control | [17] 99 % of control and 92 % of control | [18] 101 % of control | [19] 100 % of control | [20] 98 % of control

CCOCCOCCSCc1ccccn1
inactive: [1] 109 % of control | [2] 99 % of control | [3] 100 % of control

CC(C)(C)OC(=O)NC(Cc1c[nH]c2ccccc12)C(=O)NC(Cc1c[nH]c2ccccc12)C(=O)NN (stereo not drawn) (Boc-Trp-Trp-NHNH2; configuration not given here)
inactive: [9] 94 % of control | [10] 94 % of control | [11] 91 % of control | [12] 91 % of control | [13] 107 % of control

O=C(O)CCC1NC(=O)NC1=O (stereo not given)
inactive: dose: 50.0 mg/kg/injection, schedule: Q01DX001 (ip), vehicle: saline 100 % of control | dose: 100.0 mg/kg/injection, schedule: Q01DX001 (ip), vehicle: saline 103 % of control | dose: 200.0 mg/kg/injection, schedule: Q01DX001 (ip), vehicle: saline 104 % of control | dose: 400.0 mg/kg/injection, schedule: Q01DX001 (ip), vehicle: saline 94 % of control

CC1CN(C(=O)Nc2c(C(C)C)cccc2C(C)C)CC(C)O1 (stereo not given)
inactive: [16] 96 % of control | [18] 90 % of control

CCCCC(CC)CSCN(CC)CC (stereo not given)
inactive: [17] 100 % of control | [19] 102 % of control | [20] 112 % of control

CC(C)C[CH2][Ge]([CH2]CC(C)C)([CH2]CC(C)C)[CH2]CC(C)C
inactive: dose: 100.0 mg/kg/injection, schedule: Q01DX001 (ip), vehicle: saline with Tween-80 100 % of control | dose: 200.0 mg/kg/injection, schedule: Q01DX001 (ip), vehicle: saline with Tween-80 94 % of control | dose: 400.0 mg/kg/injection, schedule: Q01DX001 (ip), vehicle: saline with Tween-80 96 % of control

CCCCCCCCC(=O)Nc1ncc([N+](=O)[O-])s1
inactive: dose: 50.0 mg/kg/injection, schedule: Q01DX009 (ip), vehicle: Klucel (hydroxypropylcellulose) (HPC) 113 % of control | dose: 100.0 mg/kg/injection, schedule: Q01DX009 (ip), vehicle: Klucel (hydroxypropylcellulose) (HPC) 115 % of control | dose: 200.0 mg/kg/injection, schedule: Q01DX009 (ip), vehicle: Klucel (hydroxypropylcellulose) (HPC) 100 % of control

CSc1nc2ccccc2[nH]1
inactive: dose: 6.25 mg/kg/injection, schedule: Q01DX009 (ip), vehicle: saline with Tween-80 101 % of control | [14] 106 % of control | [15] 106 % of control | [16] 110 % of control

O=C1c2ccccc2C(=O)c2c(NCCO)ccc(NCCO)c21
inactive: dose: 25.0 mg/kg/injection, schedule: Q04DX002 (ip), vehicle: saline with Tween-80 96 % of control | dose: 50.0 mg/kg/injection, schedule: Q04DX002 (ip), vehicle: saline with Tween-80 91 % of control | dose: 100.0 mg/kg/injection, schedule: Q04DX002 (ip), vehicle: saline with Tween-80 95 % of control | dose: 200.0 mg/kg/injection, schedule: Q04DX002 (ip), vehicle: saline with Tween-80 90 % of control

COC(=O)C(CO)NC(=O)C(NC(=O)OCc1ccccc1)C(C)O (stereo not drawn) (Cbz-Thr-Ser-OMe; configuration not given here)
inactive: [1] 118 % of control | [2] 101 % of control | [3] 108 % of control

Cc1cc2c(C#N)c3ccccc3c(=O)n2c2ccccc12
inactive: [1] 98 % of control | [2] 96 % of control | [3] 100 % of control

Clc1ccc2c3c([nH]c2c1)CCc1cncnc1-3
inactive: [4] 93 % of control | [5] 90 % of control | [6] 90 % of control

c1ncn(Cn2cncn2)n1
inactive: dose: 60.0 mg/kg/injection, schedule: Q01DX005 (ip), vehicle: Klucel (hydroxypropylcellulose) (HPC) 105 % of control | dose: 120.0 mg/kg/injection, schedule: Q01DX005 (ip), vehicle: Klucel (hydroxypropylcellulose) (HPC) 107 % of control | dose: 240.0 mg/kg/injection, schedule: Q01DX005 (ip), vehicle: Klucel (hydroxypropylcellulose) (HPC) 101 % of control

CSc1nc2c(nnn2C2OC(CO)C(O)C(O)C2O)c(=O)n1C (stereo not given)
inactive: dose: 60.0 mg/kg/injection, schedule: Q01DX005 (ip), vehicle: saline 97 % of control | dose: 120.0 mg/kg/injection, schedule: Q01DX005 (ip), vehicle: saline 97 % of control | dose: 240.0 mg/kg/injection, schedule: Q01DX005 (ip), vehicle: saline 100 % of control
